Data set [1] has as its system DU-145. The data set is described as follows: Cytotoxicity against human DU145 cells. The class given is functional.
For data set [2], the system named is Mycobacterium tuberculosis. The data set can be described thus: Antituberculosis activity against Mycobacterium tuberculosis H37Rv. The class given is functional, organism-based.
For data set [3], the system named is NCI-H460. The data set can be described thus: Cytotoxicity against human H460 cells. The class given is functional.
Data set [4] has as its system M14. The data set is described as follows: Cytotoxicity against human M14 cells. The format is functional.
The test system of data set [5] is MCF7. The data set can be described thus: Cytotoxicity against human MCF7 cells. The class given is functional.
Data set [6] in a line: Cytotoxicity against african green monkey Vero cells. As to conditions: chlorocebus sabaeus. The format is cell-based.
Data set [7] in a line: Cytotoxicity against mouse 3T3 cells. The class given is cell-based. Particulars: BALB/3T3 clone A31 cells.
Data set [8] relates to K562. The data set can be described thus: Cytotoxicity against human K562 cells. The format is functional.
The test system of data set [9] is Leishmania amazonensis. The data set is described as follows: Antileishmanial activity against Leishmania amazonensis axenic amastigotes. The format is functional.
Data set [10] concerns HT-29. The data set is described as follows: Cytotoxicity against human HT-29 cells. The class given is functional.
The test system of data set [11] is PC-3. The data set can be described thus: Cytotoxicity against human PC3 cells. The class given is functional.
Data set [12] relates to Trypanosoma cruzi. The data set can be described thus: Antitrypanosomal activity against Trypanosoma cruzi Tulahuen C4 transfected with beta-galactosidase. The format is functional.
In data set [13] the test system is Saccharomyces cerevisiae. The data set can be described thus: Antimicrobial activity against Saccharomyces cerevisiae RS322. The class given is functional.
Data set [14] relates to Saccharomyces cerevisiae. The data set is described as follows: Antimicrobial activity against Saccharomyces cerevisiae RS321. The format is functional.
Data set [15] deals with ME-180. The data set can be described thus: Cytotoxicity against human ME180 cells. The format is functional.
For data set [16], the species on record is Mus musculus. The data set is described as follows: Wound healing activity in mouse. The format is functional.

Each structure is given as a SMILES string. Active and inactive are the calls of the source. The calls are words filed in the database; no cut-off is given here.

For the molecule `C[C@H](C/C=C\C(C)(C)OO)[C@H]1CC[C@@]2(C)[C@@H]3CC[C@H]4C(C)(C)[C@@H](O)CC[C@@]45C[C@@]35CC[C@]12C`, the 50% growth inhibitory concentration (GI50) (in general, the concentration at which growth is held to half of that of the control) in data set [1] was 78.7 µM; in data set [3] it was 67.4 µM; in data set [4], 58.6 µM; in data set [5], greater than 136 µM; in data set [6] it was greater than 136 µM; in [7], 82.6 µM. Further, the GI50 in data set [8] is 65.2 µM; in data set [10] it was 65.2 µM; in data set [11], greater than 136 µM. Besides, the result in data set [2] was inactive. In data set [9], this molecule yielded an Activity of 5.2 µM.

In the case of `C=CCOc1cc(OC)c(C(=O)/C=C/c2ccc(OC)cc2)c(OCC=C)c1`, in data set [12], the Activity was 1.5 µM. In addition, the concentration for 50% growth inhibition (GI50) came out at 54.9 µM in data set [1]; 52.3 µM in [3]; 72.2 µM in data set [4]; 51 µM in data set [5]; 107 µM in data set [7]; 43.4 µM in [8]. The concentration for 50% growth inhibition (GI50) stood at 74.3 µM in data set [10] and 47.3 µM in data set [11].

Take `COC(=O)C1=CO[C@H](C)[C@@H]2CN3CC[C@@]4(C(=O)Nc5ccccc54)[C@H]3C[C@@H]12` [UNCARINE E]: the GI50 in [1] is 114 µM; in data set [3], 46.1 µM; in [7] it was 62.4 µM; in data set [15] it was 67.9 µM. For the same molecule, the results for the IC12 in [13] and in [14] were 380 µM and 326 µM, respectively.

Regarding `C/C=C1/C(=O)O[C@]23C=C[C@@H]4C(C(=O)OC)=CO[C@H](O[C@@H]12)[C@@H]43` [PLUMERICIN], the 50% growth inhibitory concentration (GI50) in data set [1] was greater than 430 µM; in data set [3], 276 µM; in data set [5], greater than 430 µM; in [7] it was 431 µM; in data set [10], greater than 430 µM; in [15] it was greater than 430 µM. In data set [2], the outcome was inactive. Further, the IC12 in data set [14] was 241 µM. Also, the Activity in data set [9] was determined as 5 µM.

In the case of `CC(C)=CCC[C@](C)(O)[C@H]1CC=C(C)CC1`, the GI50 in data set [1] came out at 25.8 µM; in [3], 32.8 µM; in data set [4] it was 15.1 µM; in [5] it was 30 µM; in [7] it was 54.7 µM; in data set [8], 40.5 µM. In addition, the GI50 turned out to be 28.9 µM in [10], 28.5 µM in data set [11] and 18.2 µM in data set [15]. Also, it took a dose of 155 mg/kg to reach the 50% effect level in data set [16] (ED50).

On to `COc1ccc(CCC(=O)c2c(O)cc(O)cc2OC)cc1`, for which the concentration for 50% growth inhibition (GI50) in data set [1] is 138 µM; in data set [3], 148 µM; in data set [4] it was 133 µM; in [5], 75.7 µM; in [6], 134 µM; in data set [7], 141 µM. Besides, the GI50 in [8] amounted to 24.5 µM; in [10] it was 117 µM; in data set [11], 153 µM.

The values above are taken from ChEMBL document CHEMBL1152311, “A multipronged approach to the study of peruvian ethnomedicinal plants: a legacy of the ICBG-Peru Project” (J Nat Prod, 2009).
